Laboratory results reported in patent US20260285816A1, “Piperazinyl-Modified Quinazolinyl-Aryl Urea Derivative, And Preparation Method And Use Thereof” (Guangxi Normal University, priority 2025, published 2026).

How the values were obtained:
Type in all cases: cell-based, human
143B cells = assay: CCK-8 anti-proliferative assay, 143B; conditions: Homo sapiens, 143B; Table 14; comparative compounds; co-incubated 48 h; read-out: Anti-proliferative activity (IC50 ± standard deviation) 143B
From the text: (§1) The obtained quinazolinyl-aryl urea derivatives were screened for compounds with optimal activity using the following method. All cell lines employed in this experiment were of human origin, including: bladder cancer cells: J82, UM-UC-3, T24, 5637, pancreatic cancer cells: BxPC-3, PANC-1, osteosarcoma cells: 143B, MG-63, cervical cancer cells: HeLa, breast cancer cells: MCF-7, NSCLC cells: A549, hepatoblastoma cells: Hep G2, and ovarian cancer cells: SK-OV-3, as well as normal cell lines: immortalized ureteral epithelial cells (SV-HUC-1), embryonic lung fibroblasts (WI-38).
(§2) Experimental Procedure for Anti-Proliferative Activity Evaluation: The CCK-8 assay was employed. Cells in logarithmic growth phase were harvested, adjusted to appropriate density, and uniformly seeded into 96-well plates using a multichannel pipette (180 μL cell suspension containing complete medium per well, 5,000 cells/well). Blank control wells (containing basal medium, CCK-8 solution, and DMSO only) were set. Cells were incubated at 37° C. under 5% CO2. After 70% confluency was reached, test compounds (target compounds/positive controls) were added at final concentrations of 1, 2, 4, 6, 8, 12, 16, 24, and 30 μM (3 repeated wells per concentration). Compounds were pre-dissolved in DMSO, sterilized, and diluted with medium before adding 20 μL/well. After co-incubation for designated durations, 10 μL CCK-8 solution was added per well followed by 1-4 h incubation (different cells have different incubation times). The reaction was terminated, and OD (optical density) values at 450 nm were measured using a microplate reader. Inhibition rates were calculated as: (ODcontrol−ODtreatment)/ODcontrol×100%. Median inhibitory concentrations (IC50 values) were derived using Origin v8.0 software.

BxPC-3 cells = assay: CCK-8 anti-proliferative assay, BxPC-3; conditions: Homo sapiens, BXPC-3; Table 15; comparative compounds; co-incubated 48 h; read-out: Anti-proliferative activity (IC50 ± standard deviation) BxPC-3
From the text: as §1, §2

PANC-1 cells = assay: CCK-8 anti-proliferative assay, PANC-1; conditions: Homo sapiens, PANC-1; Table 15; comparative compounds; co-incubated 48 h; read-out: Anti-proliferative activity (IC50 ± standard deviation) PANC-1
From the text: as §1, §2

UM-UC-3 cells = assay: CCK-8 anti-proliferative assay, UM-UC-3; conditions: Homo sapiens, UMUC3; Table 14; comparative compounds; co-incubated 48 h; read-out: Anti-proliferative activity (IC50 ± standard deviation) UM-UC-3
Experimental: (§3) The obtained quinazolinyl-aryl urea derivatives were screened for compounds with optimal activity using the following method.
as §2, with “The reaction was terminated, and OD (optical density) values at 450 nm were measured using a microplate reader.” left out

SK-OV-3 cells = assay: CCK-8 anti-proliferative assay, SK-OV-3; conditions: Homo sapiens, SK-OV-3; Table 15; comparative compounds; co-incubated 48 h; read-out: Anti-proliferative activity (IC50 ± standard deviation) SK-OV-3
Experimental: as §3
as §2, with “The reaction was terminated, and OD (optical density) values at 450 nm were measured using a microplate reader.” left out

MG-63 cells = assay: CCK-8 anti-proliferative assay, MG-63; conditions: Homo sapiens, MG-63; Table 14; comparative compounds; co-incubated 48 h; read-out: Anti-proliferative activity (IC50 ± standard deviation) MG-63
From the text: as §1, §2

5637 cells = assay: CCK-8 anti-proliferative assay, 5637; conditions: Homo sapiens; Table 16; comparative compounds 8-1 to 8-23; co-incubated 48 h; read-out: Anti-proliferative activity (IC50 ± standard deviation) 5637
Experimental: as §3
as §2, with “The reaction was terminated, and OD (optical density) values at 450 nm were measured using a microplate reader.” left out

A549 cells = assay: CCK-8 anti-proliferative assay, A549; conditions: Homo sapiens, A549; Table 16; comparative compounds 8-1 to 8-23; co-incubated 48 h; read-out: Anti-proliferative activity (IC50 ± standard deviation) A549
Experimental: as §3
as §2, with “The reaction was terminated, and OD (optical density) values at 450 nm were measured using a microplate reader.” left out

Hep G2 cells = assay: CCK-8 anti-proliferative assay, Hep G2; conditions: Homo sapiens, HepG2; Table 16; comparative compounds 8-1 to 8-23; co-incubated 48 h; read-out: Anti-proliferative activity (IC50 ± standard deviation) Hep G2
From the text: as §1, §2

T24 cells = assay: CCK-8 anti-proliferative assay, T24; conditions: Homo sapiens, T-24; Table 16; comparative compounds 8-1 to 8-23; co-incubated 48 h; read-out: Anti-proliferative activity (IC50 ± standard deviation) T24
From the text: as §1, §2

MCF-7 cells = assay: CCK-8 anti-proliferative assay, MCF-7; conditions: Homo sapiens, MCF7; Table 16; comparative compounds 8-1 to 8-23; co-incubated 48 h; read-out: Anti-proliferative activity (IC50 ± standard deviation) MCF-7
Experimental: as §3
as §2, with “The reaction was terminated, and OD (optical density) values at 450 nm were measured using a microplate reader.” left out

Compound	IC50 (143B cells)	IC50 (BxPC-3 cells)	IC50 (PANC-1 cells)	IC50 (UM-UC-3 cells)	IC50 (SK-OV-3 cells)	IC50 (MG-63 cells)	IC50 (5637 cells)	IC50 (A549 cells)	IC50 (Hep G2 cells)	IC50 (T24 cells)	IC50 (MCF-7 cells)
COc1cc2ncnc(NCc3cccc(NC(=O)NCc4ccccc4)c3)c2cc1OC [Compound I-14, reference compound]	> 30 µM	12.3 ± 0.56 µM	> 30 µM	> 30 µM	19.7 ± 0.73 µM	> 30 µM	–	–	–	–	–
CCc1ccccc1NC(=O)Nc1cccc(CNc2ncnc3cc(OC)c(OC)cc23)c1 [Compound I-5, reference compound]	6.47 ± 0.28 µM	6.54 ± 0.61 µM	12.5 ± 0.97 µM	10.5 ± 0.71 µM	7.76 ± 0.38 µM	13.4 ± 0.95 µM	–	–	–	–	–
O=C(Nc1cccc(CNc2ncnc3ccccc23)c1)Nc1ccc(Cl)cc1Cl [Compound II-17, reference compound]	10.3 ± 0.67 µM	14.2 ± 0.82 µM	20.7 ± 0.96 µM	7.69 ± 0.56 µM	9.27 ± 0.55 µM	8.54 ± 0.59 µM	–	–	–	–	–
COc1cc2ncnc(NCc3cccc(NC(=O)Nc4ccccc4Cl)c3)c2cc1OC [Compound I-10, reference compound]	7.74 ± 0.39 µM	9.85 ± 0.76 µM	11.7 ± 0.82 µM	8.77 ± 0.41 µM	11.2 ± 0.92 µM	11.1 ± 0.54 µM	–	–	–	–	–
Cc1cccc(NC(=O)Nc2cccc(CNc3ncnc4ccccc34)c2)c1 [Compound II-2, reference compound]	13.2 ± 0.86 µM	15.5 ± 1.71 µM	> 30 µM	22.8 ± 1.38 µM	19.5 ± 1.37 µM	19.3 ± 1.76 µM	–	–	–	–	–
COc1cc2ncnc(NCc3cccc(NC(=O)Nc4ccc(F)cc4)c3)c2cc1OC [Compound I-9, reference compound]	6.11 ± 0.42 µM	8.62 ± 0.86 µM	10.7 ± 0.95 µM	9.56 ± 0.72 µM	10 ± 0.53 µM	14.8 ± 1.22 µM	–	–	–	–	–
Cc1ccc(NC(=O)Nc2cccc(CNc3ncnc4ccccc34)c2)cc1 [Compound II-3, reference compound]	11.3 ± 0.88 µM	14.3 ± 0.86 µM	> 30 µM	17.8 ± 0.57 µM	14.7 ± 0.98 µM	17.8 ± 0.95 µM	–	–	–	–	–
CCc1cccc(CC)c1NC(=O)Nc1cccc(CNc2ncnc3ccccc23)c1 [Compound II-5, reference compound]	7.26 ± 0.35 µM	9.92 ± 0.41 µM	14.8 ± 1.24 µM	8.72 ± 0.36 µM	8.4 ± 0.53 µM	10.5 ± 0.82 µM	–	–	–	–	–
O=C(Nc1ccccc1)Nc1cccc(CNc2ncnc3ccccc23)c1 [Compound II-1, reference compound]	> 30 µM	27.6 ± 1.91 µM	> 30 µM	> 30 µM	> 30 µM	> 30 µM	–	–	–	–	–
COc1ccc(NC(=O)Nc2cccc(CNc3ncnc4cc(OC)c(OC)cc34)c2)cc1 [Compound I-7, reference compound]	21.3 ± 1.59 µM	22.8 ± 1.71 µM	> 30 µM	18.6 ± 1.35 µM	13.7 ± 0.85 µM	> 30 µM	–	–	–	–	–
COc1ccccc1NC(=O)Nc1cccc(CNc2ncnc3cc(OC)c(OC)cc23)c1 [Compound I-6, reference compound]	19.3 ± 1.67 µM	23.6 ± 1.47 µM	26.5 ± 2.36 µM	20.6 ± 2.37 µM	9.12 ± 0.44 µM	25.4 ± 1.74 µM	–	–	–	–	–
O=C(Nc1ccc(C(F)(F)F)cc1)Nc1cccc(CNc2ncnc3ccccc23)c1 [Compound II-13, reference compound]	7.56 ± 0.27 µM	8.43 ± 0.39 µM	26.2 ± 2.26 µM	9.63 ± 0.52 µM	15 ± 1.74 µM	20.8 ± 0.95 µM	–	–	–	–	–
COc1cc2ncnc(NCc3cccc(NC(=O)Nc4ccc(C)cc4C)c3)c2cc1OC [Compound I-3, reference compound]	5.94 ± 0.33 µM	7.78 ± 0.69 µM	17.6 ± 1.48 µM	9.02 ± 0.74 µM	9.17 ± 0.58 µM	12.1 ± 0.76 µM	–	–	–	–	–
COc1cc2ncnc(NCc3cccc(NC(=O)Nc4ccc(C)cc4)c3)c2cc1OC [Compound I-2, reference compound]	6.34 ± 0.56 µM	10.3 ± 0.59 µM	24.4 ± 1.69 µM	11.2 ± 0.85 µM	10.1 ± 0.69 µM	11.2 ± 0.67 µM	–	–	–	–	–
CC(C)(C)c1ccc(NC(=O)Nc2cccc(CNc3ncnc4ccccc34)c2)cc1 [Compound II-9, reference compound]	10.5 ± 0.43 µM	13.3 ± 0.87 µM	15.7 ± 1.52 µM	9.77 ± 0.52 µM	7.78 ± 0.69 µM	9.24 ± 0.71 µM	–	–	–	–	–
COc1cc2ncnc(NCc3cccc(NC(=O)Nc4ccc(F)c(C(F)(F)F)c4)c3)c2cc1OCCCC(=O)N1CCC(N2CCOCC2)CC1 [Compound 8-19, reference compound]	–	–	–	–	–	–	17.9 ± 0.45 µM	16.1 ± 0.71 µM	> 30 µM	26.2 ± 0.94 µM	22.4 ± 0.82 µM
CCc1ccccc1NC(=O)Nc1cccc(CNc2ncnc3cc(OC)c(OCCCC(=O)N4CCC(N5CCOCC5)CC4)cc23)c1 [Compound 8-6, reference compound]	–	–	–	–	–	–	27.5 ± 0.94 µM	> 30 µM	> 30 µM	19.4 ± 0.44 µM	> 30 µM
CCc1cccc(CC)c1NC(=O)Nc1cccc(CNc2ncnc3cc(OC)c(OCCCC(=O)N4CCC(N5CCOCC5)CC4)cc23)c1 [Compound 8-7, reference compound]	–	–	–	–	–	–	13.9 ± 0.68 µM	> 30 µM	24.2 ± 0.53 µM	18.6 ± 0.53 µM	> 30 µM
